Legend:
Format in all cases: in vivo, human
[1] = Study C: single and multiple dose pharmacokinetics of MNTX and metabolites, MNTX 450 mg PO x 7 days; settings: for t1/2 / AUC0-24 / AUCinf / Cmax / Tmax / Metabolite/MNTX Ratio / R (PO), accumulation factor: 450 mg Tablets oral; for Metabolite/MNTX Ratio: 100*(Metabolite AUC24/MNTX AUC24); for R (PO), accumulation factor: AUC0-24 on Day 7/AUC0-24 on Day 1; for metabolite to MNTX ratios following oral administration: day and AUC basis not stated
Protocol: (§1) Presented herein is a clinical pharmacokinetics study, Study C, as well as Studies A and B. Study A investigated the single and multiple dose pharmacokinetics of methylnaltrexone (MNTX) and its metabolites (M2: methylnaltrexone sulfate; M4: 6α-methylnaltrexol; and M5: 6β-methylnaltrexol) following the subcutaneous administration of 12 mg methylnaltrexone. In Study B, the single and multiple dose pharmacokinetics of methylnaltrexone (MNTX) and its metabolites (M2, M4, and M5) were examined following a 20-minute short intravenous infusion of 24 mg of methylnaltrexone (MNTX).
In addition, the urinary elimination of MNTX was characterized.
(§2) Pharmacokinetic parameters included Cmax, AUCt, AUCinf, tmax, t1/2, % Re24, accumulation factor (R) as defined below and metabolite/parent drug ratio.
(§3) R=Accumulation Factor(based on AUC0-24(ng·h/mL):Day 7 AUC AUC0-24/Day 1 AUC0-24
(§4) Metabolite-Parent Drug ratio(based on ng·h/mL)(%)=100*(Metabolite AUC24/MNTX AUC24)
(§5) Note: AUCinf was used in place of AUC AUC0-24 for R and Metabolite-Parent Drug ratio computations following IV administration.

[2] = Study A: single and multiple dose pharmacokinetics after subcutaneous 12 mg methylnaltrexone; settings: 12 mg SC Injection; for t1/2: day not given, harmonic mean; for R (SC), accumulation factor: AUC0-24 on Day 7/AUC0-24 on Day 1
Protocol: as §1, §2, §3, §4, §5

[3] = Study B: single and multiple dose pharmacokinetics after 20-minute intravenous infusion of 24 mg methylnaltrexone; settings: 24 mg IV infusion; for t1/2 / AUC0-6: day not given; for AUC0-6: mean; for Metabolite ÷ MNTX Ratio / R (IV), accumulation factor: AUCinf used
Protocol: as §1, §2, §3, §4, §5

| Compound | t1/2 ([1]; Day 1, harmonic mean) [h] | AUC0-24 ([1]; Day 1, mean) [ng·h/mL] | AUCinf ([1]; Day 1, mean) [ng·h/mL] | Cmax ([1]; Day 1, mean) [ng/mL] | Tmax ([1]; Day 1, median) [h] | Metabolite/MNTX Ratio ([1]; Day 1) [%] | t1/2 ([1]; Day 7, harmonic mean) [h] | AUC0-24 ([1]; Day 7, mean) [ng·h/mL] | AUCinf ([1]; Day 7, mean) [ng·h/mL] | Cmax ([1]; Day 7, mean) [ng/mL] | Tmax ([1]; Day 7, median) [h] | Metabolite/MNTX Ratio ([1]; Day 7) [%] | R (PO), accumulation factor [1] | metabolite to MNTX ratios following oral administration [1] [%] | Metabolite/MNTX Ratio ([2]; Day 1) [%] | AUC0-24 ([2]; Day 1, mean) [ng·h/mL] | AUCinf ([2]; Day 1, mean) [ng·h/mL] | Cmax ([2]; Day 1, mean) [ng/mL] | Tmax ([2]; Day 1, median) [h] | Metabolite/MNTX Ratio ([2]; Day 7) [%] | also measured |
| --- | --- | --- | --- | --- | --- | --- | --- | --- | --- | --- | --- | --- | --- | --- | --- | --- | --- | --- | --- | --- | --- |
| methylnaltrexone sulfate [M2] | 7.19 | 188.63 | 216.89 | 17.15 | 4.02 | 72.69 | 13.87 | 243.72 | 320.51 | 21.00 | 4.02 | 79.11 | 1.30 | 81.0 | 28.71 | 61.34 | 71.9 | 6.34 | 4.00 | 29.30 | AUC0-24 ([2]; Day 7, mean): 66.3 ng·h/mL; AUCinf ([2]; Day 7, mean): 66.3 ng·h/mL; Cmax ([2]; Day 7, mean): 5.70 ng/mL; Tmax ([2]; Day 7, median): 4.00 h; t1/2 [2]: 5.57 h; R (SC), accumulation factor [2]: 1.13; AUCinf ([3]; Day 1, mean): 162 ng·h/mL; Cmax ([3]; Day 1, mean): 16.6 ng/mL; AUCinf ([3]; Day 7, mean): 176 ng·h/mL; Cmax ([3]; Day 7, mean): 37.70 ng/mL; t1/2 [3]: 5.70 h; AUC0-6 [3]: 72.3 ng·h/mL; Metabolite ÷ MNTX Ratio [3]: 46.60%; R (IV), accumulation factor [3]: 2.61 |
| C[N@+]1(CC2CC2)CC[C@]23c4c5ccc(O)c4O[C@H]2[C@H](O)CC[C@@]3(O)[C@H]1C5 [M5, 6β-methylnaltrexol] | 18.40 | 40.84 | 73.61 | 3.48 | 3.13 | 15.10 | 28.65 | 66.33 | 120.87 | 4.89 | 2.69 | 21.41 | 1.76 | 29.78 | 6.58 | 14.41 | 18.5 | 1.17 | 2.0 | 8.72 | AUC0-24 ([2]; Day 7, mean): 19.51 ng·h/mL; AUCinf ([2]; Day 7, mean): 19.5 ng·h/mL; Cmax ([2]; Day 7, mean): 1.42 ng/mL; Tmax ([2]; Day 7, median): 2.0 h; t1/2 [2]: 8.13 h; R (SC), accumulation factor [2]: 1.42; AUCinf ([3]; Day 1, mean): 35.10 ng·h/mL; Cmax ([3]; Day 1, mean): 3.44 ng/mL; AUCinf ([3]; Day 7, mean): 30.0 ng·h/mL; Cmax ([3]; Day 7, mean): 8.71 ng/mL; t1/2 [3]: 12.3 h; AUC0-6 [3]: 12.3 ng·h/mL; Metabolite ÷ MNTX Ratio [3]: 8.69%; R (IV), accumulation factor [3]: 2.91 |
| C[N@+]1(CC2CC2)CC[C@]23c4c5ccc(O)c4O[C@H]2[C@@H](O)CC[C@@]3(O)[C@H]1C5 [M4, 6α-methylnaltrexol] | 17.48 | 79.73 | 124.23 | 9.01 | 2.0003 | 29.70 | 31.85 | 119.61 | 221.13 | 10.77 | 2.0007 | 38.50 | 1.62 | 54.21 | 15.81 | 34.66 | 38.3 | 4.64 | 1.0 | 18.75 | AUC0-24 ([2]; Day 7, mean): 41.86 ng·h/mL; AUCinf ([2]; Day 7, mean): 41.9 ng·h/mL; Cmax ([2]; Day 7, mean): 4.33 ng/mL; Tmax ([2]; Day 7, median): 1.0 h; t1/2 [2]: 7.59 h; R (SC), accumulation factor [2]: 1.25; AUCinf ([3]; Day 1, mean): 61.30 ng·h/mL; Cmax ([3]; Day 1, mean): 11.0 ng/mL; AUCinf ([3]; Day 7, mean): 54.0 ng·h/mL; Cmax ([3]; Day 7, mean): 18.10 ng/mL; t1/2 [3]: 12.28 h; AUC0-6 [3]: 28.8 ng·h/mL; Metabolite ÷ MNTX Ratio [3]: 14.90%; R (IV), accumulation factor [3]: 2.08 |
